Assay results as given in ChEMBL document CHEMBL4190229, “Growth Inhibition of Colon Cancer and Melanoma Cells by Versiol Derivatives from a Paraconiothyrium Species” (J Nat Prod, 2017).

Key:
[1] = system: KM12; assay: Antiproliferative activity against human KM12 cells after 48 hrs by XTT assay; conditions: KM12, 48 h
[2] = system: Panel NCI-60 (60 carcinoma cell lines); assay: Antiproliferative activity against human NCI60 cells after 48 hrs by sulforhodamine B assay; assay type: functional, cell-based
[3] = system: Panel NCI-60 (60 carcinoma cell lines); assay: Antiproliferative activity against human NCI60 cells at 10 uM after 48 hrs by sulforhodamine B assay relative to control; assay type: functional
[4] = system: COLO 205; assay: Antiproliferative activity against human COLO205 cells after 48 hrs by XTT assay; conditions: COLO 205, 48 h

Row | IC50 [4] [µM] | SMILES | IC50 [1] [µM] | Activity [2] | Activity [3] [%]
1 | < 1.25 | CC(=O)CC/C=C(\C)[C@H](O)[C@H](C)C(=O)O[C@H]1C[C@H](C)C=C2C=C[C@@]3(C)O[C@@H](O)CC(=O)[C@]3(C)[C@H]21 | < 1.25 | Dose-dependent effect | -34
2 | 12.5 | C/C(=C\C=C\[C@H](C)CC(=O)O)[C@H](O)[C@H](C)C(=O)O[C@H]1C[C@@H](C)[C@@H](O)c2ccc(C)c(C)c21 | 6.5 | – | 89
3 | < 1.25 | CC(/C=C/C=C(\C)[C@H](O)[C@H](C)C(=O)O[C@H]1C[C@H](C)C=C2C=C[C@@]3(C)O[C@@H](O)CC(=O)[C@]3(C)[C@H]21)=C\C=C\C(=O)O | < 1.25 | – | -3
